Experimental data from EP0369088A1, “Use of zinc acexamate in the prophylaxis of gastropathy induced by non-steroidal anti-inflammatory drugs” (LABORATORIOS VINAS S.A., priority 1988, dated 1990).

Key:
Format in all cases: in vivo, rat (Sprague Dawley)
Aspirin-induced lesions = experiment: Aspirin-induced gastric lesions in the rat, protective effect of ZAC; details: aspirin two doses of 200 mg/kg p.o. 12 hours apart, mean ± SD, n 10, p<0.01; for Macroscopic index: control 3.4 ± 0.2; for Microscopic index: scale 0 to 5, control 3.0 ± 0.3
Excerpt: (§1) In view of the more or less serious gastric intolerance to the different anti-inflammatory drugs, the possibility of inhibiting this side effect by way of the protective action of zinc […]) has been considered. Therefore, the protective effect of ZAC against gastric lesions induced by the most characteristic NSAIDs has been studied. The animal of election was the rat (Sprague Dawley), which was sacrificed after treatment with ZAC and NSAID. The stomach was extirpated, and macro and microscopic evaluations were made. The macroscopic evaluation was made following the method of Adami (1964, Arch. Int. Pharmacodyn., 147: 113-45) with slight modifications, consisting of evaluating the gravity and extension of the lesions, using a points system evaluating the lesions according to the number and/or size thereof. 0 - no lesion 1 - irritation or presence of a hemorrhagic area 2 - from 1 to 5 small ulcers 3 - many small ulcers (more than 5) or 1 large one 4 - many large ulcers 5 - perforated ulcer The overall value of the lesions is obtained by adding up the score of the lesions determined. Half of the stomachs of each animal group was taken for hystological processing, the microscopic lesions being valued according to a scale of 0 to 5, 0 being a lesion-free mucous membrane and 5 representing multiple erosions with hemorrhagic subfusions. two doses of 200 mg/kg p.o. were administered spaced apart by 12 hours. In both cases, ZAC was tested at dosages of: 50, 100 and 150 mg/kg and a control group received water.

[1] = system: Ibuprofen-induced lesions; experiment: Ibuprofen-induced gastric lesions in the rat, protective effect of ZAC; details: ibuprofen single 200 mg/kg dose, mean ± SD; for Macroscopic index: n 10, control 2.4 ± 0.3; for Microscopic index: scale 0 to 5, n 5, control 2.8 ± 0.4
Excerpt: as §1, with “a single” for “two doses of”, “dose was administered.” for “p.o. were administered spaced apart by 12 hours.”

[2] = system: Phenylbutazone-induced lesions; experiment: Phenylbutazone-induced gastric lesions in the rat, protective effect of ZAC; details: phenylbutazone total dose 80 mg/kg in two halves 2 hours apart, mean ± SD, n 10, control 2.8 ± 0.4, p<0.01
Excerpt: In view of the more or less serious gastric intolerance to the different anti-inflammatory drugs, the possibility of inhibiting this side effect by way of the protective action of zinc acexamate (ZAC) has been considered. Therefore, the protective effect of ZAC against gastric lesions induced by the most characteristic NSAIDs has been studied. The animal of election was the rat (Sprague Dawley), which was sacrificed after treatment with ZAC and NSAID. The stomach was extirpated, and macro and microscopic evaluations were made. The macroscopic evaluation was made following the method of Adami (1964, Arch. Int. Pharmacodyn., 147: 113-45) with slight modifications, consisting of evaluating the gravity and extension of the lesions, using a points system evaluating the lesions according to the number and/or size thereof. 0 - no lesion 1 - irritation or presence of a hemorrhagic area 2 - from 1 to 5 small ulcers 3 - many small ulcers (more than 5) or 1 large one 4 - many large ulcers 5 - perforated ulcer
The overall value of the lesions is obtained by adding up the score of the lesions determined.
An additional, anti-ulcer activity index was calculated for phenylbutazone, obtained by expressing the lesion indexes as an inhibition percentage relative to the control group. The dose-response curve was determined from the percentages and the theoretical ED₅₀ was determined from the curve.
A total dose of 80 mg/kg of phenylbutazone was administered, half at the start of the experiment and the other half after 2 hours. The ZAC doses used were 75, 150 and 300 mg/kg. The animals were sacrificed 4 hours after the last ZAC administration.

[3] = system: Indomethacin-induced lesions; experiment: Indomethacin-induced gastric lesions in the rat, protective effect of ZAC; details: ZAC 200 mg/kg, indomethacin total 20 mg/kg in two doses of 10 mg/kg 12 hours apart, mean ± SD, p<0.01
Excerpt: as §1, with “two doses of 200 mg/kg p.o. were administered spaced apart by 12 hours. In both cases, ZAC was tested at dosages of: 50, 100 and 150 mg/kg and a control group received water.” left out

Work on zinc acexamate [ZAC] yielded a Macroscopic index (Aspirin-induced lesions; ZAC 50 mg/kg) of 2.3 ± 0.3, a Microscopic index (Aspirin-induced lesions; ZAC 50 mg/kg) of 1.8 ± 0.2 and a Macroscopic index (Aspirin-induced lesions; ZAC 100 mg/kg) of 2.1 ± 0.3. For the same substance, the Microscopic index (Aspirin-induced lesions; ZAC 100 mg/kg) was 2.0 ± 0.2, the Macroscopic index (Aspirin-induced lesions; ZAC 150 mg/kg) was 1.9 ± 0.3 and the Microscopic index (Aspirin-induced lesions; ZAC 150 mg/kg) was 2.3 ± 0.2. It also gave a Macroscopic index ([1]; ZAC 50 mg/kg, p<0.01) of 1.6 ± 0.4, a Microscopic index ([1]; ZAC 50 mg/kg, p<0.05) of 2.2 ± 0.2 and a Macroscopic index ([1]; ZAC 100 mg/kg, p<0.01) of 1.7 ± 0.3. It also gave a Microscopic index ([1]; ZAC 100 mg/kg, NS) of 2.4 ± 0.2 NS, a Macroscopic index ([1]; ZAC 150 mg/kg, p<0.01) of 1.5 ± 0.2 and a Microscopic index ([1]; ZAC 150 mg/kg, p<0.01) of 2.0 ± 0.03. It also gave a Macroscopic index ([2]; ZAC 75 mg/kg) of 1.3 ± 0.5, a Macroscopic index ([2]; ZAC 150 mg/kg) of 0.4 ± 0.3 and a Macroscopic index ([2]; ZAC 300 mg/kg) of 2.0 ± 0.2. The Macroscopic index ([3]; n 10, control 4.3 ± 0.4) was 1.8 ± 0.3 and the Microscopic index ([3]; scale 0 to 5, n 5, control 4.0 ± 0.7) was 5 2.1 ± 0.2.
